Values quoted from earlier work in patent US12551426B2, “Method for treating hair, comprising the application of a first agent (a) having a silane and a chromophoric compound, and a second agent (b) having a film-forming polymer” (Henkel AG & Co. KGaA, priority 2018, dated 2026).

Details: 25° C.

solubility in water (in words)	Compound	solubility in water
	O=S(=O)([O-])c1ccc(N=Nc2c(O)ccc3ccccc23)cc1.[Na+] [Acid Orange 7, sodium salt of 4-[(2-hydroxy-1-naphthyl)azo]benzene sulphonate]	more than 7 g/L
	Acid Yellow 3	20 mg/mL
	O=C([O-])c1c(Cl)c(Cl)c(Cl)c(Cl)c1-c1c2c(Br)cc(=O)c(Br)c-2oc2c(Br)c(O)cc(Br)c12.O=C([O-])c1c(Cl)c(Cl)c(Cl)c(Cl)c1-c1c2c(Br)cc(=O)c(Br)c-2oc2c(Br)c(O)cc(Br)c12.[Na+].[Na+] [Acid Red 92, disodium salt of 3,4,5,6-tetrachloro-2-(1,4,5,8-tetrabromo-6-hydroxy-3-oxoxanthen-9-yl)benzoic acid]	greater than 10 g/L
	Nc1cc(S(=O)(=O)[O-])cc2cc(S(=O)(=O)[O-])c(N=Nc3ccccc3)c(O)c12.[Na+].[Na+] [Acid Red 33, diantrium salt of 5-amino-4-hydroxy-3-(phenylazo)-naphthalene-2,7-disulphonate]	2.5 mg/mL
highly soluble in water	O=C([O-])C1=NN(c2ccc(S(=O)(=O)[O-])cc2)C(=O)C1N=Nc1ccc(S(=O)(=O)[O-])cc1.[Na+].[Na+].[Na+] (centres unmarked) [Acid Yellow 23, trisodium salt of 4,5-dihydro-5-oxo-1-(4-sulfophenyl)-4-((4-sulfophenyl)azo)-1H-pyrazole-3-carboxylic acid]	
